Test results taken from the kinase profiling compilation of Christmann-Franck et al. (2016).

Experiments:
Test in all cases: radiometric filter-binding kinase assay, Kinase HotSpot
Details in all cases: compound 0.5 µM; ATP 10 µM
PNCK (human) = PNCK (human) (UniProt Q6P2M8)
MARK4 (human) = MARK4 (human) (UniProt Q96L34)
DSTYK (human) = DSTYK (human) (UniProt Q6XUX3)
RPS6KB2 (human) = RPS6KB2 (human) (UniProt Q9UBS0)
FER (human) = FER (human) (UniProt P16591)
ALK (human) = ALK (human) (UniProt Q9UM73)
ULK2 (human) = ULK2 (human) (UniProt Q8IYT8)
EPHB2 (human) = EPHB2 (human) (UniProt P29323)
PRKX (human) = PRKX (human) (UniProt P51817)
CLK4 (human) = CLK4 (human) (UniProt Q9HAZ1)
CLK2 (human) = CLK2 (human) (UniProt P49760)
CSNK1G3 (human) = CSNK1G3 (human) (UniProt Q9Y6M4)
STK11 (human) = STK11 (human) (UniProt Q15831)
MAP3K8 (human) = MAP3K8 (human) (UniProt P41279)
TAOK2 (human) = TAOK2 (human) (UniProt Q9UL54)
PAK4 (human) = PAK4 (human) (UniProt O96013)
ZAP70 (human) = ZAP70 (human) (UniProt P43403)
MAP2K2 (human) = MAP2K2 (human) (UniProt P36507)
ERBB4 (human) = ERBB4 (human) (UniProt Q15303)
JAK3 JH1 JH2 (human) = JAK3 JH1 JH2 (human) (UniProt P52333)
CSF1R (human) = CSF1R (human) (UniProt P07333)
NEK7 (human) = NEK7 (human) (UniProt Q8TDX7)
MAPK10 (human) = MAPK10 (human) (UniProt P53779)
CLK3 (human) = CLK3 (human) (UniProt P49761)
MST1R (human) = MST1R (human) (UniProt Q04912)
TGFBR1 (human) = TGFBR1 (human) (UniProt P36897)
CAMK1 (human) = CAMK1 (human) (UniProt Q14012)
DYRK4 (human) = DYRK4 (human) (UniProt Q9NR20)
NUAK1 (human) = NUAK1 (human) (UniProt O60285)
LTK (human) = LTK (human) (UniProt P29376)
CDK5 CDK5R1 p25 (human) = CDK5 CDK5R1 p25 (human) (UniProt Q00535+Q15078)
MAP3K14 (human) = MAP3K14 (human) (UniProt Q99558)
KDR (human) = KDR (human) (UniProt P35968)
RAF1 (human) = RAF1 (human) (UniProt P04049)
ROCK1 (human) = ROCK1 (human) (UniProt Q13464)
PAK6 (human) = PAK6 (human) (UniProt Q9NQU5)
PHKG2 (human) = PHKG2 (human) (UniProt P15735)
MST4 (human) = MST4 (human) (UniProt Q9P289)
HIPK2 (human) = HIPK2 (human) (UniProt Q9H2X6)
TEK (human) = TEK (human) (UniProt Q02763)
IRAK4 (human) = IRAK4 (human) (UniProt Q9NWZ3)

Sequence of JAK3 JH1 JH2 (human) (P52333 whole entry, looked up): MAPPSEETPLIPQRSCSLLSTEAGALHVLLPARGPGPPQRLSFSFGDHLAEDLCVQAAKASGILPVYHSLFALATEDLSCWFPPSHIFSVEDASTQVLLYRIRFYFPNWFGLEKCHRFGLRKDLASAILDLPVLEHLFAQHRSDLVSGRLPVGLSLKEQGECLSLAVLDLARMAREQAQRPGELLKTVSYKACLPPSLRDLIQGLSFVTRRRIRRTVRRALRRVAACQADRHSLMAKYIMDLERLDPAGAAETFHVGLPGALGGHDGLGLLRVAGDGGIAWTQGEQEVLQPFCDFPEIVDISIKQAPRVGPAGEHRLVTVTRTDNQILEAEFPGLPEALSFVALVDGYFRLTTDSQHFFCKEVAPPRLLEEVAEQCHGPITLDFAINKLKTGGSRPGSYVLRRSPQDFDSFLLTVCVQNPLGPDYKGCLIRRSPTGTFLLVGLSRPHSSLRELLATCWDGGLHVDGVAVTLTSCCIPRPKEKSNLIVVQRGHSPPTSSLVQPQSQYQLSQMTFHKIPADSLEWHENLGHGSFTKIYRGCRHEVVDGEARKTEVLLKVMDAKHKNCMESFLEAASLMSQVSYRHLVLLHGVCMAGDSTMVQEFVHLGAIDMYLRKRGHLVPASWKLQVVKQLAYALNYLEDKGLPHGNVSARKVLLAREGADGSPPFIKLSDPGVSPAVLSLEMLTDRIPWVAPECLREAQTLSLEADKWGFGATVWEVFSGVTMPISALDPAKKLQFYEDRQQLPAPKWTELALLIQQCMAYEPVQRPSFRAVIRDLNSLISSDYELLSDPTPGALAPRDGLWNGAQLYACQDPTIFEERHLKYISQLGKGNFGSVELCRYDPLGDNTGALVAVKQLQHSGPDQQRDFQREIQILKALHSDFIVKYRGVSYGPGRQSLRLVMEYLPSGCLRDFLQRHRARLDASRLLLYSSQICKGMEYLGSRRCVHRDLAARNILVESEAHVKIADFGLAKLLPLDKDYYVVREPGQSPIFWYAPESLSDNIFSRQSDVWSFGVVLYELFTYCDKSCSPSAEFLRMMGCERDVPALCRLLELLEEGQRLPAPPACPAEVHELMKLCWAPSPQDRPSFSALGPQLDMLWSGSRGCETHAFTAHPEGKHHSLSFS
Sequence of ZAP70 (human) (P43403 whole entry, looked up): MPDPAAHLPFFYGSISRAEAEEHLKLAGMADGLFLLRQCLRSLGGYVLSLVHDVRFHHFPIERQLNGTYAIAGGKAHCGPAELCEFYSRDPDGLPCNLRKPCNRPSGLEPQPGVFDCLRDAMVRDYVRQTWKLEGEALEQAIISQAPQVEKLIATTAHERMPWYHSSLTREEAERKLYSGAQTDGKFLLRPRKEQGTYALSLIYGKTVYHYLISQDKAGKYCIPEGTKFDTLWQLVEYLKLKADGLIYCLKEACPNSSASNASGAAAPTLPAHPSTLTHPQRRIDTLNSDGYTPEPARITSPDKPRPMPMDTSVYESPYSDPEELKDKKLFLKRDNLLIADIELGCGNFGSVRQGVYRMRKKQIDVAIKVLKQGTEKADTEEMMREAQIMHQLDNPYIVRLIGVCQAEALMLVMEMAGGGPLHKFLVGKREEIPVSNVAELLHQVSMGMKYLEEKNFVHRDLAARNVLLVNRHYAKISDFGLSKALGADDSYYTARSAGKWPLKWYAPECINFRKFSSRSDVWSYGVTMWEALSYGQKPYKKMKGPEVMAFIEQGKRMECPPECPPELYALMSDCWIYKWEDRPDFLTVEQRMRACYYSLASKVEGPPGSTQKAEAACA
Sequence of LTK (human) (P29376 whole entry, looked up): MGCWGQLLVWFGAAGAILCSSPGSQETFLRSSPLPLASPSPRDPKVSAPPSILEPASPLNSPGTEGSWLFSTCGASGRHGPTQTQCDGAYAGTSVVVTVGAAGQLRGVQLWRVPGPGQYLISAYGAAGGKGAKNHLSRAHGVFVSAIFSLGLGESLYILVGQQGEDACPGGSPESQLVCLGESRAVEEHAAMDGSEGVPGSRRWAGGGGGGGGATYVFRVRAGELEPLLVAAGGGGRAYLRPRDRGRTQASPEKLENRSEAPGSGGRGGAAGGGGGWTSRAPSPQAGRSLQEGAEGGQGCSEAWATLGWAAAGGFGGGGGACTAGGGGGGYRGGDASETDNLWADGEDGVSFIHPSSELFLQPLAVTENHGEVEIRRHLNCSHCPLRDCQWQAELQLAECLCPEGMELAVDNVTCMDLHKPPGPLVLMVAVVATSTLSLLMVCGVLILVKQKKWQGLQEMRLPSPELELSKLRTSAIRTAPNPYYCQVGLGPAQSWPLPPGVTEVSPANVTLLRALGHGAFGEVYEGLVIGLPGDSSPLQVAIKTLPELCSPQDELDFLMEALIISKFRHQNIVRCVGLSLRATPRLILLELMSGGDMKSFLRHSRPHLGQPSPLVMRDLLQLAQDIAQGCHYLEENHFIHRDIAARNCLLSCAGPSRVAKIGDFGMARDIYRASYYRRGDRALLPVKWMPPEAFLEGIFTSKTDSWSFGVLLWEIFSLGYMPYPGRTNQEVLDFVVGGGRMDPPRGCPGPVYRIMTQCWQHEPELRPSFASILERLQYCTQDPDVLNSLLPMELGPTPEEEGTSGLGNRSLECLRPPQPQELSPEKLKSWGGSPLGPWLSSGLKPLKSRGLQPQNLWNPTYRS
Sequence of MARK4 (human) (Q96L34 whole entry, looked up): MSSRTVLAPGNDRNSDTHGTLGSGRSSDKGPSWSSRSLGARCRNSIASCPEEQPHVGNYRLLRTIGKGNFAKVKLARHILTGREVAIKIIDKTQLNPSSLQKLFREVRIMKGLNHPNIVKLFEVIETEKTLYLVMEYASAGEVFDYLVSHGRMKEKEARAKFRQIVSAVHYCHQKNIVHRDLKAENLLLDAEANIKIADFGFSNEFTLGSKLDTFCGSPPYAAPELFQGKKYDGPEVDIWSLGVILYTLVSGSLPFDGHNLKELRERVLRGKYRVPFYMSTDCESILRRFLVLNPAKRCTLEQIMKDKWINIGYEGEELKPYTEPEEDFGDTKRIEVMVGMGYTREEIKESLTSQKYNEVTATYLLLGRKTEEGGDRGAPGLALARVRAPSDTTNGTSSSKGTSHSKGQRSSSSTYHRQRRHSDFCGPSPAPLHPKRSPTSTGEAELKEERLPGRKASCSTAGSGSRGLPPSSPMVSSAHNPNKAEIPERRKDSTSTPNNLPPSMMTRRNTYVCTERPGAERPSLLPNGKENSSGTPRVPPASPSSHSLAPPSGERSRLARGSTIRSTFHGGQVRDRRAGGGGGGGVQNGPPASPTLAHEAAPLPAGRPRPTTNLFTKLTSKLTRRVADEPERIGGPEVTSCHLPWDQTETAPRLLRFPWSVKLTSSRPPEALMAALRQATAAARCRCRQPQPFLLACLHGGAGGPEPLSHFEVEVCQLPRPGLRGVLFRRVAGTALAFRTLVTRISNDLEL
Sequence of CSF1R (human) (P07333 whole entry, looked up): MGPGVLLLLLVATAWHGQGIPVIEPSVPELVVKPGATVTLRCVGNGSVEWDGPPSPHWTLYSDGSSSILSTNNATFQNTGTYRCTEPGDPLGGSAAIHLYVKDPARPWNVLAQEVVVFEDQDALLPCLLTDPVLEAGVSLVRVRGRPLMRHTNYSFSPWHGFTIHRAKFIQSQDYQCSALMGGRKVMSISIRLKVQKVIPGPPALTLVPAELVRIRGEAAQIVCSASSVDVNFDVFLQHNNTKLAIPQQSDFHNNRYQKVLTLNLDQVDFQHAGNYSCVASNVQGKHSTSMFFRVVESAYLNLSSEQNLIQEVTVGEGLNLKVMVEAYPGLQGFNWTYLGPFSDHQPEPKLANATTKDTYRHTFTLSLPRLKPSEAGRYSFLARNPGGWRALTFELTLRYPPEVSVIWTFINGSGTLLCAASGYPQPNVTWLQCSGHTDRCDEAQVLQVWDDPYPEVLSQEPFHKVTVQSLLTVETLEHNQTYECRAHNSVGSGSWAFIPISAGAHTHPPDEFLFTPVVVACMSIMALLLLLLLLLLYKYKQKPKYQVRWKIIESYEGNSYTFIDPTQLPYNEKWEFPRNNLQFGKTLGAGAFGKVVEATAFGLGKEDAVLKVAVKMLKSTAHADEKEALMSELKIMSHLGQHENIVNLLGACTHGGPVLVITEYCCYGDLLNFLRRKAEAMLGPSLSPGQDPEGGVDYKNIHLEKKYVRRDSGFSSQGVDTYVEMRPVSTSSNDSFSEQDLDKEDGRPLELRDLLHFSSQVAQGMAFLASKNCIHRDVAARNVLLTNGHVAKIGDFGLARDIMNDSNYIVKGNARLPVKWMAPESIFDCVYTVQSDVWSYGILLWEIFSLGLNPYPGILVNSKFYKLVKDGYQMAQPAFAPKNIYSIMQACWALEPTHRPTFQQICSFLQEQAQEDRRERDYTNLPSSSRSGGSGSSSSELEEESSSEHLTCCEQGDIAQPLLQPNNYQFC
Sequence of DYRK4 (human) (Q9NR20 whole entry, looked up): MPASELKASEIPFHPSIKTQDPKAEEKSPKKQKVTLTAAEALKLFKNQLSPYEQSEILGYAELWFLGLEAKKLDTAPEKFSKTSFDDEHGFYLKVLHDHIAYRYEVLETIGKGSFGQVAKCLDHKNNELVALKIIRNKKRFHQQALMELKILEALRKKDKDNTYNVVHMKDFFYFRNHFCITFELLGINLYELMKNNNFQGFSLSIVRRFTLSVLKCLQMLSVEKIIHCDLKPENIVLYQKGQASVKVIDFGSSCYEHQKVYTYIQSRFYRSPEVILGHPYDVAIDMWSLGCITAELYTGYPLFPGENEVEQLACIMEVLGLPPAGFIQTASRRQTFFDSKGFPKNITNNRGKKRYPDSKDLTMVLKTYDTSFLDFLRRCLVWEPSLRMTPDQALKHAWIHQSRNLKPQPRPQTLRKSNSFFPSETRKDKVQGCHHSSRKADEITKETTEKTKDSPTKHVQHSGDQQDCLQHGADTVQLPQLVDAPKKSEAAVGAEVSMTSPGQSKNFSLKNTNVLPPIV

Cn1sc(=O)n(Cc2ccccc2)c1=O
residual activity (PNCK (human)): 98.7% | residual activity (MARK4 (human)): 85.1% | residual activity (DSTYK (human)): 92.9% | residual activity (RPS6KB2 (human)): 101% | residual activity (FER (human)): 101% | residual activity (ALK (human)): 94.1% | residual activity (ULK2 (human)): 105% | residual activity (EPHB2 (human)): 88.5% | residual activity (PRKX (human)): 102% | residual activity (CLK4 (human)): 99.1% | residual activity (CLK2 (human)): 98.5% | residual activity (CSNK1G3 (human)): 114% | residual activity (STK11 (human)): 106% | residual activity (MAP3K8 (human)): 97.1% | residual activity (TAOK2 (human)): 91% | residual activity (PAK4 (human)): 104% | residual activity (ZAP70 (human)): 102% | residual activity (MAP2K2 (human)): 101% | residual activity (ERBB4 (human)): 104% | residual activity (JAK3 JH1 JH2 (human)): 106% | residual activity (CSF1R (human)): 98.6% | residual activity (NEK7 (human)): 101% | residual activity (MAPK10 (human)): 91.1% | residual activity (CLK3 (human)): 83% | residual activity (MST1R (human)): 101% | residual activity (TGFBR1 (human)): 97.2% | residual activity (CAMK1 (human)): 100% | residual activity (DYRK4 (human)): 99.3% | residual activity (NUAK1 (human)): 102% | residual activity (LTK (human)): 101% | residual activity (CDK5 CDK5R1 p25 (human)): 103% | residual activity (MAP3K14 (human)): 81.6% | residual activity (KDR (human)): 89.4% | residual activity (RAF1 (human)): 97.2% | residual activity (ROCK1 (human)): 94.6% | residual activity (PAK6 (human)): 93.4% | residual activity (PHKG2 (human)): 90.6% | residual activity (MST4 (human)): 98.1% | residual activity (HIPK2 (human)): 99.6% | residual activity (TEK (human)): 90.9% | residual activity (IRAK4 (human)): 107%

Nc1nccc(-c2c(-c3ccc(F)cc3)ncn2C2CCNCC2)n1
residual activity (PNCK (human)): 94.3% | residual activity (MARK4 (human)): 97.4% | residual activity (DSTYK (human)): 102% | residual activity (RPS6KB2 (human)): 90.9% | residual activity (FER (human)): 98.3% | residual activity (ALK (human)): 102% | residual activity (ULK2 (human)): 113% | residual activity (EPHB2 (human)): 103% | residual activity (PRKX (human)): 96.8% | residual activity (CLK4 (human)): 96.9% | residual activity (CLK2 (human)): 99.7% | residual activity (CSNK1G3 (human)): 83.9% | residual activity (STK11 (human)): 89.1% | residual activity (MAP3K8 (human)): 102% | residual activity (TAOK2 (human)): 98% | residual activity (PAK4 (human)): 95.1% | residual activity (ZAP70 (human)): 92.3% | residual activity (MAP2K2 (human)): 105% | residual activity (ERBB4 (human)): 86.8% | residual activity (JAK3 JH1 JH2 (human)): 96.9% | residual activity (CSF1R (human)): 100% | residual activity (NEK7 (human)): 98.9% | residual activity (MAPK10 (human)): 105% | residual activity (CLK3 (human)): 102% | residual activity (MST1R (human)): 100% | residual activity (TGFBR1 (human)): 102% | residual activity (CAMK1 (human)): 107% | residual activity (DYRK4 (human)): 99.3% | residual activity (NUAK1 (human)): 98.4% | residual activity (LTK (human)): 97.3% | residual activity (CDK5 CDK5R1 p25 (human)): 95.4% | residual activity (MAP3K14 (human)): 107% | residual activity (KDR (human)): 102% | residual activity (RAF1 (human)): 90.9% | residual activity (ROCK1 (human)): 103% | residual activity (PAK6 (human)): 111% | residual activity (PHKG2 (human)): 104% | residual activity (MST4 (human)): 98.4% | residual activity (HIPK2 (human)): 106% | residual activity (TEK (human)): 101% | residual activity (IRAK4 (human)): 123%
